From patent publication US12017996B2, “Substituted quinolines and formulations thereof” (JIANGSU MEDOLUTION LTD, priority 2021, dated 2024)

Experiments:
Format in all cases: physicochemical
[1] = Compatibility test of excipients (impurities over time)
Description: Each of mannitol, sodium starch glycolate, hydroxpropyl cellulose and glyceryl behenate was individually mixed with Compound A. The resulting mixture was tested for the impurities over time under the following conditions: lumination 4500±500 Lux; high humidity at 90±5%; high temperature at 40±2° C.; and accelerated condition at humidity of 75±5% and temperature of 40±2° C. Testing were done at day 0, day 7 and day 14. The percentage of the total impurities and the SZMD4-Z8 impurity were recorded together with other data.

[2] = Solubility of Compound A in solvents
Excerpt: (§1) For example, Compound A is soluble in acetic acid and hydrochloric acid solution (0.1 M). […] Compound A's dissociation constants: pKa1 is 4.99; pKa2 is 10.26.

[3] = Dissociation constants
Excerpt: as §1

[4] = high temperature 40±2° C., day 7
[5] = high temperature 40±2° C., day 14
[6] = lumination 4500±500 Lux, day 14

SZMD4-Z8 impurity ([1]; day 0): 0.03% | Total Impurities ([1]; day 0): 0.29% | SZMD4-Z8 impurity ([1]; high humidity 90±5%, day 7): 0.04% | Total Impurities ([1]; high humidity 90±5%, day 7): 0.31% | SZMD4-Z8 impurity ([1]; high humidity 90±5%, day 14): 0.04% | Total Impurities ([1]; high humidity 90±5%, day 14): 0.30% | SZMD4-Z8 impurity [1, 4]: 0.03% | Total Impurities [1, 4]: 0.31% | SZMD4-Z8 impurity [1, 5]: 0.03% | Total Impurities [1, 5]: 0.30% | SZMD4-Z8 impurity ([1]; lumination 4500±500 Lux, day 7): 0.03% | Total Impurities ([1]; lumination 4500±500 Lux, day 7): 0.40% | SZMD4-Z8 impurity [1, 6]: 0.03% | Total Impurities [1, 6]: 0.44%% | solubility ([2]; in acetic acid): soluble | solubility ([2]; in acetonitrile): slightly soluble | solubility ([2]; in ethanol): slightly soluble | solubility ([2]; in hydrochloric acid solution (0.1 M)): soluble | solubility ([2]; in n-propanol): hardly soluble | solubility ([2]; in sodium hydroxide solution (0.1 M)): not soluble | solubility ([2]; in water): extremely slightly soluble | dissociation constant pKa1 [3]: 4.99 | dissociation constant pKa2 [3]: 10.26
SMILES: C#Cc1cccc(Nc2c(C#N)cnc3cc(OCC)c(NC(=O)/C=C/CN(C)C)cc23)c1.O=C(O)/C=C\C(=O)O [Compound A, (E)-N-[3-cyano-7-ethoxy-4-(3-ethynylanilino)-6-quinolyl]-4-(dimethylamino)but-2-enamide maleate]
